Laboratory results as given in patent publication US20170226507A1, “COORDINATE CONTROL OF PATHOGENIC SIGNALING BY THE MIR-130/301 FAMILY IN PULMONARY HYPERTENSION AND FIBROPROLIFERATIVE DISEASES” (The Brigham and Women's Hospital, Inc., priority 2014, published 2017).
“Also recorded” adds a separate entry of the source. No end group written: not given here.

Key:
[1] = tested on: hypoxia-induced PH in mice; experiment: Hypoxia-induced PH in mice: BAPN (prevention, rescue) or GW3965 (prevention); type: in vivo, mouse
From the text: Finally, we wanted to determine if ApoE activity and/or LOX-dependent vascular stiffening were essential for ECM stiffening and PH development by miR-130/301. To assess the importance of ApoE activity, we attempted to prevent PH in mice via treatment with daily dietary ingestion of the liver-X nuclear hormone receptor (LXR) agonist GW3965, a known pharmacologic inducer of ApoE (Pencheva et al., 2014), simultaneously with hypoxia (FIGS. 62A-62H and 68A-H). Alternatively, experiments were designed to either prevent or reverse hypoxia-induced PH in mice via serial treatment with a pharmacologic inhibitor of LOX (Levental et al., 2009), β-aminopropionitrile BAPN, administered either simultaneously with hypoxia exposure (“prevention”) or after disease development (“reversal”) (FIGS. 62A-62H and 68A-H). In all cases of GW3965 or BAPN treatment, collagen crosslinking (FIG. 62D, 62H, FIG. 68) was inhibited, leading to decreased indices of PH, as reflected by RVSP (FIG. 62A, 62E), right ventricular remodeling (RV/LV+S ratio; FIG. 62B, 62F) and pulmonary arteriolar muscularization (FIG. 62C, 62G). GW3965 or BAPN treatment also reversed Pparγ and Lrp8 down-regulation (FIGS. 68A-68H) as well as reduced YAP nuclear localization (FIG. 62D, 62H) and YAP activation, as reflected by decreased Ctgf (FIGS. 68A-68H). Thus, considering the convergent data regarding pharmacologic manipulation of miR-130/301, APOE, and LOX, we can conclude that the YAP-TAZ-miR-130/301 circuit and its downstream network of targets act as master regulators of ECM remodeling in PH and represent a new set of targets for tailored molecular therapy in this disease.
To determine the effects of the LXR agonist GW3965 (Sigma-Aldrich) and consequent APOE induction on PH development, as previously described (Pencheva et al., 2014), mice were exposed to normobaric hypoxia and simultaneously assigned to control chow or chow supplemented with GW3965 (Research Diets, Inc.) at doses of 100 mg of drug per kilogram of mouse per day (based on average daily intake of […] of chow).
Picrosirius Red stain was achieved through the use of 5 μm paraffin sections stained with 0.1% Picrosirius Red (Direct Red80, Sigma-Aldrich) and counterstained with Weigert's hematoxylin to reveal fibrillar collagen. The sections were then serially imaged using with an analyzer and polarizer oriented parallel and orthogonal to each other. Microscope conditions (lamp brightness, condenser opening, objective, zoom, exposure time, and gain parameters) were constant throughout the imaging of all samples. A minimal threshold was set on appropriate control sections for each experiment in which only the light passing through the orthogonally-oriented polarizers representing fibrous structures (i.e., excluding residual light from the black background) was included. The threshold was maintained for all images across all conditions within each experiment. The area of the transferred regions that was covered by the thresholded light was calculated and at least 10 sections/vessel per condition were averaged together (Image J software).
This protocol was adapted from a previously published protocol (Hu et al.). Mouse lung was weighed, minced, and incubated in 0.5 M acetic acid at 4° C. After overnight digestion, the acetic acid-soluble and insoluble fractions were isolated by centrifugation. The soluble fraction was stored at −80° C., while the insoluble fraction was digested by overnight incubation in 6M hydrochloric acid at 85° C. Concentrations of soluble and insoluble (gelatinous) collagen fractions were determined using a Sircol Soluble Collagen Assay Kit (Biocolor) with a colorimetric reaction (measured at 550 nm) and a provided collagen reference standard curve.

[2] = tested on: Bleomycin-induced lung fibrosis in mice; experiment: Bleomycin-induced lung fibrosis in mice; type: in vivo, mouse
[3] = tested on: liver-X nuclear hormone receptor (LXR); experiment: Oral LXR agonist GW3965 in bleomycin-exposed mice (lung fibrosis); type: in vivo, mouse; details: 100 mg/kg/day in chow
Description: C57BL/6 mice (7-8 weeks old) were exposed to 0.035 U of bleomycin via oropharyngeal route. In the control group, saline (PBS) was administered via the same route. Mice were euthanized 14 days or 21 days after bleomycin administration. To determine the effects of the LXR agonist GW3965 (Sigma-Aldrich) and consequent APOE induction on lung fibrosis, as previously described^12, mice were exposed to bleomycin (as described above) and simultaneously assigned to control chow or chow supplemented with GW3965 (Research Diets, Inc.) at doses of 100 mg of drug per kilogram of mouse per day (based on average daily intake of […] of chow). After two weeks, harvest of lung tissue was performed for RNA/protein extraction or paraffin embedding. Messenger RNAs were reverse transcribed using the Multiscript RT kit (Life Technologies) to generate cDNA. cDNA was amplified via fluorescently labeled Taqman primer sets using an Applied Biosystems 7900HT Fast Real Time PCR device. […] A primary antibody against YAP1 (#4912; 1/200) was obtained from Cell Signaling. Primary antibodies against, LRP8 (ab115196; 1/100), α-SMA (1/400) were purchased from Abcam. Primary antibodies against PPARγ (sc-7273; 1/50) was purchased from Santa Cruz. Primary antibody against anti-shortmer ([…]-[…]; 1/1000) was provided by Regulus Therapeutics, as previously described^2. […] Pictures were obtained using an Olympus Bx51 microscope. For liver tissue and pulmonary tissue, 10 random 20× fields per animal were analyzed. Intensity of staining was quantified using ImageJ software (NIH). […] Degree of liver fibrosis was assessed in paraffin-embedded liver sections stained for α-SMA by […] score^65. All measurements were performed blinded to condition. […] The sections were then serially imaged using with an analyzer and polarizer oriented parallel and orthogonal to each other. Microscope conditions (lamp brightness, condenser opening, objective, zoom, exposure time, and gain parameters) were constant throughout the imaging of all samples. A minimal threshold was set on appropriate control sections for each experiment in which only the light passing through the orthogonally-oriented polarizers representing fibrous structures (i.e., excluding residual light from the black background) was included. The threshold was maintained for all images across all conditions within each experiment. The area of the transferred regions that was covered by the thresholded light was calculated and at least 10 sections per condition were averaged together (Image J software).

STAT3 = STAT3 phosphorylation in PASMCs (conditioned media from PAECs or endothelin-1; immunoblot); type: cell-based, human; details: direct exposure to endothelin-1
Description: (§1) (FIG. 40A) A schematic diagram of co-culture experiments: conditioned media from transfected PAECs (miRNA, anti-miRNA, tiny-LNA or siRNA under normoxic or hypoxic conditions) were filtered and applied onto naïve PASMCs cultured in matrigel. At specific times, PASMCs or PASMC-matrigel cultures were arrested and analyzed for STAT3 activation (phosphorylation) or contraction, respectively.
(§2) 50000 PASMC were embedded in 100 ul of matrix gel as previous described (Gagiolli et al) and plated into well of a 96 well plate. After 1 h at 37° C., these matrices were overlaid with 100 ul of conditioned PAECs serum-free medium (transfected with siRNA, miRNA or anti-miRNA and supplemented with Ambriesentan 10 uM). Every 12 h, medium was changed and at day 4 the gels were photographed and the relative diameter of the well and the gel were measured using ImageJ. The percentage contraction was calculated using the formula 100*(well diameter−gel diamter)/well diameter. For the co-culture experiment, conditioned media from PAEC transfected as indicated were applied on PASMCs or Fibroblast previously starved (24 h). Cells were collected at different time and analyzed by western blotting.
Cells were lysed in RIPA buffer (Santa Cruz Biotechnology) and the protein concentration determined using a Bradford assay (Biorad). Protein lysate ([…]) were resolved by SDS-PAGE and transferred onto a PVDF membrane (Biorad). Membranes were blocked in 5% non-fat milk in TN buffer (50 mM Tris-HCl pH 7.4, 150 mM NaCl) and incubated in the presence of the primary and then secondary antibodies. After washing in TN buffer containing 0.1% Tween, immunoreactive bands were visualized with the ECL system (Amersham Biosciences). […] Primary antibodies for STAT3 (#9139) and P-STAT3 (Tyr-705; #9145) were purchased from Cell Signaling. Primary antibodies against actin (ab 3280), was obtained from Abcam. Appropriate secondary antibodies (anti-rabbit and anti-mouse) coupled to HRP were used (Santa Cruz Biotechnology).

PASMCs = experiment: Contraction assay of PASMCs in matrigel; type: cell-based, human; details: endothelin-1 for 4 days vs vehicle
Description: as §1, §2

For `O=C(O)Cc1cccc(OCCCN(Cc2cccc(C(F)(F)F)c2Cl)CC(c2ccccc2)c2ccccc2)c1` [GW3965], the perivascular collagen crosslinking ([1]; Picrosirius Red) was “inhibited; also recorded: decreased”, the “Ctgf, collagen isoforms, and Lox in lung” value ([1]; RT-qPCR) was “blunted” and the “whole lung collagen content and crosslinked collagen” value ([1]; Sircol assay) was “nearly normalized”. For the same compound, the arteriolar muscularization ([1]; hypoxic mice) was “decreased; also recorded: prevented”, the “right ventricular hypertrophy (Fulton index, RV/LV+S)” value ([1]; hypoxic mice) was “decreased; also recorded: prevented” and the RVSP ([1]; hypoxic mice, BAPN prevention and rescue, GW3965 100 mg/kg/day in chow, 100 mg/kg/day) was “decreased; also recorded: prevented”. The “hypoxia mediated decreases of Lrp8 and Pparγ” value ([1]; in situ staining) was “reversed; also recorded: prevented”, the “hypoxia-mediated increases of α-SMA and YAP” value ([1]; in situ staining) was “reduced; also recorded: blunted” and the “Pparγ and Lrp8 (and Timp2) expression” value ([2]; IHC / in situ stain) was “blunted”. The “Ctgf, collagen isoforms and Lox transcripts” value ([2]; RT-PCR) was “reduced”, the “collagen deposition and cross-linking” value ([2]; Short-130 20 mg/kg i.p. or GW3965 100 mg/kg dietary) was “blunted” and the “lung fibrosis (α-SMA, collagen staining, Ashcroft score)” value ([2]; Short-130 or GW3965 100 mg/kg dietary) was “ameliorated”. The “Yap nuclear localization / YAP” value ([2]; in situ stain) was “blunted”, the “Pparγ and Lrp8 down-regulation” value [3] was “reversed” and the “YAP activation, Ctgf expression” value [3] was “decreased”. The YAP nuclear localization [3] was “reduced”, the collagen crosslinking ([3]; two weeks) was “inhibited” and the “indices of lung fibrosis, Ashcroft score” value ([3]; two weeks) was “decreased”.
With “endothelin-1: recombinant human EDN1 applied to PASMCs at 1 nM (CSCSSLMDKECVYFCHLDIIW; ends and bridges not checked; cysteine pairing not given here; UniProt P05305 53-73, looked up)” the “STAT3 phosphorylation in PASMCs” value (STAT3) was “time-dependent increase”, the “STAT3 phosphorylation in PASMCs” value (STAT3; listed as EDN1) was “increased” and the “matrigel contraction of PASMC culture” value (PASMCs) was “led to matrigel contraction”. The “matrigel contraction of PASMC culture” value (PASMCs; listed as EDN1) was “increased”.
